Measured values from ChEMBL document CHEMBL5055659, “Photosensitive and Photoswitchable TRPA1 Agonists Optically Control Pain through Channel Desensitization” (J Med Chem, 2021).
The source made the active and inactive calls. The rule behind the calls is not given here.

Tests used:
[1] = target: T1, Transient receptor potential cation channel subfamily A member 1 (Homo sapiens, UniProt O75762); experiment: Inhibition of fluorescent probe A1CA binding to TRPA1 (unknown origin) expressed in CHO cells assessed as decrease in fluorescent intensity at 10 uM incubated for 2 mins by confocal fluorescence microscopy; type: cell-based
[2] = target: T1, Transient receptor potential cation channel subfamily A member 1; experiment: Agonist activity at TRPA1 expressed in CHO cells assessed as activation of channel current in presence of 330 - 380 nm UV irradiation by whole-cell patch clamp electrophysiology; type: cell-based
[3] = Drug metabolism in cell external solution assessed as thermal isomerization by measuring half life at 50 uM at 25 degC by UV-vis spectroscopy; type: ADME
[4] = target: T1, Transient receptor potential cation channel subfamily A member 1; experiment: Agonist activity at human TRPA1 expressed in HEK293 cells assessed as induction of Ca2+ influx at 10 uM measured under dark by Fluo-8 based calcium imaging assay; type: cell-based
[5] = Photostability of the compound in bath solution by measuring reversible photo-isomerism measured after exposure to 365 to 530 nm UV irradiation by UV spectra; type: physicochemical
[6] = target: Transient receptor potential cation channel subfamily V member 4 (Homo sapiens) (UniProt Q9HBA0); experiment: Effect on TRPV4 (unknown origin) transfected in CHO cells assessed as activation of channel current in presence of 365 nm UV irradiation by whole-cell patch clamp electrophysiology; type: cell-based
[7] = Drug metabolism in cyclohexane assessed as thermal isomerization by measuring half life at 50 uM at 25 degC by UV-vis spectroscopy; type: physicochemical
Mus musculus [8] = organism: Mus musculus; experiment: Antinociceptive activity against capsaicin-induced wild type C57BL/6J mouse left check pain model assessed as reduction in frequency of wiping within 10 mins at 1 mM smeared on left check followed by exposed to 365 nm UV light; type: functional, organism-based
[9] = target: Sodium channel protein type 4 subunit alpha (Homo sapiens) (UniProt P35499); experiment: Effect on Nav1.4 (unknown origin) transfected in CHO cells assessed as activation of channel current in presence of 365 nm UV irradiation by whole-cell patch clamp electrophysiology; type: cell-based
Mus musculus [10] = organism: Mus musculus; experiment: Antinociceptive activity against capsaicin-induced […] knock-out C57BL/6J mouse left check pain model assessed as reduction in frequency of wiping within 10 mins at 1 mM smeared on left check followed by exposed to 365 nm UV light; type: functional, organism-based
HEK293 = experiment: Induction of Ca2+ influx in TRPA1 untransfected HEK293 cells at 10 uM measured under 365 nm UV irradiation by Fluo-8 based calcium imaging assay; type: functional, cell-based; conditions: Homo sapiens
[11] = Drug metabolism in bath solution assessed as photochemical switch by measuring trans-isoform reversal at 50 uM measured after exposure to 415 nm UV irradiation by HPLC analysis; type: physicochemical
[12] = target: Transient receptor potential cation channel subfamily A member 1 (Mus musculus) (UniProt Q8BLA8); experiment: In vivo induction of TRPA1 channel desensitization in capsaicin-induced wild type C57BL/6J mouse left check pain model assessed as macroscopic current desensitization at 300 uM treated 11 consecutive repeat measured after exposed to 365 nm UV light; type: functional, organism-based
[13] = target: Sodium channel protein type 5 subunit alpha (Homo sapiens, UniProt Q14524); experiment: Effect on Nav1.5 (unknown origin) transfected in CHO cells assessed as activation of channel current in presence of 365 nm UV irradiation by whole-cell patch clamp electrophysiology; type: cell-based
[14] = target: T2, Transient receptor potential cation channel subfamily V member 3 (Homo sapiens) (UniProt Q8NET8); experiment: Effect on TRPV3 (unknown origin) transfected in CHO cells assessed as activation of channel current in presence of 365 nm UV irradiation by whole-cell patch clamp electrophysiology; type: cell-based
T2 sequence (whole entry): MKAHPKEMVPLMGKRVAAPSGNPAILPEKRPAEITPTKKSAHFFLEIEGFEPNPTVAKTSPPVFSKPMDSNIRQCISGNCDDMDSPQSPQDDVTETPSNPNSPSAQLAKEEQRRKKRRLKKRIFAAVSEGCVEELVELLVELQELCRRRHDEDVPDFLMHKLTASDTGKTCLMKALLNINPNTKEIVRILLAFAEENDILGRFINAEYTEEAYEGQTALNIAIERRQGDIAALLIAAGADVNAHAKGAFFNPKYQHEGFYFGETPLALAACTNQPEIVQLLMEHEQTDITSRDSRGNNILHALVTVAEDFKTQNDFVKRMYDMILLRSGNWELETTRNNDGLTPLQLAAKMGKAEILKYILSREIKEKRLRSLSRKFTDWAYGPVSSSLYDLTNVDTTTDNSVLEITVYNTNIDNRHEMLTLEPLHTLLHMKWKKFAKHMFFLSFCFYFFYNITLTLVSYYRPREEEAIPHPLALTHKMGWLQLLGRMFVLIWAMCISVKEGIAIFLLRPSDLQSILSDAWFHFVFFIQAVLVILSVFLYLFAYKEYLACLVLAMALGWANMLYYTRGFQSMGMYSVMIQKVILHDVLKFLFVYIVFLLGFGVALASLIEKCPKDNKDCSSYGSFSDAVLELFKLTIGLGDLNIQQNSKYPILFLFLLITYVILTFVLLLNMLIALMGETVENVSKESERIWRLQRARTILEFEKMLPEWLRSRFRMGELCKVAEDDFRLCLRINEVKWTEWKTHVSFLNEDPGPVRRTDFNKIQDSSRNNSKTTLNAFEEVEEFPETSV

[15] = target: T1, Transient receptor potential cation channel subfamily A member 1; experiment: Agonist activity at human TRPA1 expressed in HEK293 cells assessed as induction of Ca2+ influx at 10 uM measured under 365 nm UV irradiation by Fluo-8 based calcium imaging assay; type: cell-based; conditions: filed as agonist
Mus musculus [16] = organism: Mus musculus; experiment: Antinociceptive activity against capsaicin-induced wild type C57BL/6J mouse left check pain model assessed as reduction in frequency of wiping within 10 mins at 1 mM smeared on left check; type: functional, organism-based
[17] = Drug metabolism in bath solution assessed as photochemical switch by measuring cis-isoform at 50 uM measured after exposure to 365 nm UV irradiation by HPLC analysis; type: physicochemical
[18] = target: T1, Transient receptor potential cation channel subfamily A member 1; experiment: Agonist activity at human TRPA1 expressed in HEK293 cells assessed as induction of Ca2+ influx at 300 uM measured under 365 nm UV irradiation by Fluo-8 based calcium imaging assay; type: cell-based; conditions: filed as agonist
[19] = target: T1, Transient receptor potential cation channel subfamily A member 1; experiment: Agonist activity at TRPA1 expressed in CHO cells assessed as reversal of activated channel current in presence of 410 - 420 nm UV irradiation at 100 uM by whole-cell patch clamp electrophysiology; type: cell-based

T1 sequence (O75762 whole entry): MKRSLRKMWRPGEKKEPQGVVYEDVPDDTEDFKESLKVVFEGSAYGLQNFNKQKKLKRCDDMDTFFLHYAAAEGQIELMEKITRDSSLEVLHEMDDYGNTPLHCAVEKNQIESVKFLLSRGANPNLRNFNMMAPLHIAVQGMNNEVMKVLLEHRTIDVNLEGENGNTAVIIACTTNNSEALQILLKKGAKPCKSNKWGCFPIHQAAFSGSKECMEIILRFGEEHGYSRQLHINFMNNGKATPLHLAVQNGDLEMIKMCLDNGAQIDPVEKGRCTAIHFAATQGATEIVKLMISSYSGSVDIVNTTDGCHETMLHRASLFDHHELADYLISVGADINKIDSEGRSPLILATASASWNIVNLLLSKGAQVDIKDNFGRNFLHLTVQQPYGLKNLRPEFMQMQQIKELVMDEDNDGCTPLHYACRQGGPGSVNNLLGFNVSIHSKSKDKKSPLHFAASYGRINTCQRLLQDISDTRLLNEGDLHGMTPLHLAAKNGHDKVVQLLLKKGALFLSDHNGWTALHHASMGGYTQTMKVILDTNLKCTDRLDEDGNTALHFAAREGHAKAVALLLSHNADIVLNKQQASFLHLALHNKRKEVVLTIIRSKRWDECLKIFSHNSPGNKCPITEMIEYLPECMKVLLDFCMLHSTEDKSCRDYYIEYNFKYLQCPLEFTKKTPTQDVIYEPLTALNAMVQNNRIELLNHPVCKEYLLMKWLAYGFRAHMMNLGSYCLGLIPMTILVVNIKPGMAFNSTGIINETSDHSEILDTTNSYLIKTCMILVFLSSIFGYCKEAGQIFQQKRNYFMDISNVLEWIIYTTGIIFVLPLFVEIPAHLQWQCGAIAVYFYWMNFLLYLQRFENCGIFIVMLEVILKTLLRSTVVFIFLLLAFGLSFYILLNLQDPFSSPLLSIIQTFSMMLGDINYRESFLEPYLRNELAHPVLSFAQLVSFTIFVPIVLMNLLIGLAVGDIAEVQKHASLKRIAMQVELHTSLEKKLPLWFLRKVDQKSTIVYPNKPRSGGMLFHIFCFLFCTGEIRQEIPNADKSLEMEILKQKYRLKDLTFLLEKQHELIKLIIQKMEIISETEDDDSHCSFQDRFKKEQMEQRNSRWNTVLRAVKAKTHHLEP
Transient receptor potential cation channel subfamily V member 4 (Homo sapiens), sequence (Q9HBA0 whole entry): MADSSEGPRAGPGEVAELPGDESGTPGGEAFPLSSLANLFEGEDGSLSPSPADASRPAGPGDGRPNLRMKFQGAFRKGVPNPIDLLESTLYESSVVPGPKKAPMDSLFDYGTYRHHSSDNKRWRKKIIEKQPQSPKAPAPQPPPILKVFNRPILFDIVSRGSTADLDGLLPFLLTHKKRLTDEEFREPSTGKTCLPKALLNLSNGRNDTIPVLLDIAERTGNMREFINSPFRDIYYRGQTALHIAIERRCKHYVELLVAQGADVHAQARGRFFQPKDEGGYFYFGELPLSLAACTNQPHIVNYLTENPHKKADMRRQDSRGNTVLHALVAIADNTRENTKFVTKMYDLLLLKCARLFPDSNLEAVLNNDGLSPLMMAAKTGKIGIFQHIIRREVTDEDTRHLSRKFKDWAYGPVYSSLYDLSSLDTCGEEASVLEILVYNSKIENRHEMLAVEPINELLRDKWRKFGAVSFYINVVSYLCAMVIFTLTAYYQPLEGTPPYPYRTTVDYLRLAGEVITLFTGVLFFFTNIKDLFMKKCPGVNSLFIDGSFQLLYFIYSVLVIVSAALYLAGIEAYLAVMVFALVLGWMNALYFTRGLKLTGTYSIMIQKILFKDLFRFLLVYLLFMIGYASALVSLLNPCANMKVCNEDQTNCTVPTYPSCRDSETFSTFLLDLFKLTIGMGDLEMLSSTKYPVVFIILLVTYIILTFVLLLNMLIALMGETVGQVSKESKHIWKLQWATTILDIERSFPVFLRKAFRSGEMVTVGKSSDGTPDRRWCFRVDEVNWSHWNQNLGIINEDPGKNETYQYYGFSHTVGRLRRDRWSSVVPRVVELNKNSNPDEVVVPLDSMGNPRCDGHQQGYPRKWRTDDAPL
Sodium channel protein type 4 subunit alpha (Homo sapiens), sequence (P35499 whole entry, looked up): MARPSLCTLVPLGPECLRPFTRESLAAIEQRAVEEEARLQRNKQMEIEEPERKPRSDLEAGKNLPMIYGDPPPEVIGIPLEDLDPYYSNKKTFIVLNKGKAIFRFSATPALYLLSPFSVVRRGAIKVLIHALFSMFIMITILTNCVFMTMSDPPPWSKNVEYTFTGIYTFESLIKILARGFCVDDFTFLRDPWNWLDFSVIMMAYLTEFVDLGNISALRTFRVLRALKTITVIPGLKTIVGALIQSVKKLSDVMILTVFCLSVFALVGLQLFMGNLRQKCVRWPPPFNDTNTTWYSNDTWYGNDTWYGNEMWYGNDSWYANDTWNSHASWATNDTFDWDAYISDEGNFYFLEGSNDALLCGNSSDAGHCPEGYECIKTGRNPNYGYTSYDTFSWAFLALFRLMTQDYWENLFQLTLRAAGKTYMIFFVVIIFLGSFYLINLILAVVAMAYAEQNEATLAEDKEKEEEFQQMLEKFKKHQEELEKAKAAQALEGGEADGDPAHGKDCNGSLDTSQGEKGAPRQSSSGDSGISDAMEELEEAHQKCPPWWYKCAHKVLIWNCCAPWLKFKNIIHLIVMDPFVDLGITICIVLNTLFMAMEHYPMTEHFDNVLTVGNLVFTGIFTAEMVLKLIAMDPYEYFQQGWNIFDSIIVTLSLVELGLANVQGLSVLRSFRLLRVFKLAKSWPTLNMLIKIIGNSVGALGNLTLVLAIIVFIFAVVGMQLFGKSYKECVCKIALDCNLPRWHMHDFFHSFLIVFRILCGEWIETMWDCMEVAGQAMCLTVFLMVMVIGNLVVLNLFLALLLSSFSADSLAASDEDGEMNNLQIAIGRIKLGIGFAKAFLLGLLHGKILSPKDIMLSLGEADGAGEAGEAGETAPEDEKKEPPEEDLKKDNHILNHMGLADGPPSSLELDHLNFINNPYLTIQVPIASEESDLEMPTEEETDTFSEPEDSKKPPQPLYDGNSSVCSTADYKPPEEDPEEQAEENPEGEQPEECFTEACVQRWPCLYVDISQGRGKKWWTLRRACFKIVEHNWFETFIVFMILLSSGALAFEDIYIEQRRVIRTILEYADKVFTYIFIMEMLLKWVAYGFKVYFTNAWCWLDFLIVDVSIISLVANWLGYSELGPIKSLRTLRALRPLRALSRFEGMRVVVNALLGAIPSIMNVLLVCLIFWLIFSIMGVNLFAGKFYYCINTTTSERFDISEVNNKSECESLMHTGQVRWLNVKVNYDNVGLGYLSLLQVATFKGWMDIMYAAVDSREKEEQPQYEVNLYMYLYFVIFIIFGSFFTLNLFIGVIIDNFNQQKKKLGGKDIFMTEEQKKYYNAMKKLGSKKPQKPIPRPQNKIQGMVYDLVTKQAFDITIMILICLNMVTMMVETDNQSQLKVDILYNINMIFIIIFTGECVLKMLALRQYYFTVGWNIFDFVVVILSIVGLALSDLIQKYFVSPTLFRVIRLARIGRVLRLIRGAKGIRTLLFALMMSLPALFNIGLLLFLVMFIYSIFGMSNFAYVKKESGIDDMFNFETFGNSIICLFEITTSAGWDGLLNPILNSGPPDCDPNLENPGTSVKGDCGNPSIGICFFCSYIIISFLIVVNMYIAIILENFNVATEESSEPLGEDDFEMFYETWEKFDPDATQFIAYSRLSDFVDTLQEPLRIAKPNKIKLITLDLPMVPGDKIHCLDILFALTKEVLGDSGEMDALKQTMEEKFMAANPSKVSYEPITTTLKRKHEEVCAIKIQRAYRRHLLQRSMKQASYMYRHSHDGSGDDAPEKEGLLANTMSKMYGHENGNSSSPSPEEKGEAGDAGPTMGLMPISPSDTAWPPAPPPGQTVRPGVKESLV
Transient receptor potential cation channel subfamily A member 1 (Mus musculus), sequence (Q8BLA8 whole entry): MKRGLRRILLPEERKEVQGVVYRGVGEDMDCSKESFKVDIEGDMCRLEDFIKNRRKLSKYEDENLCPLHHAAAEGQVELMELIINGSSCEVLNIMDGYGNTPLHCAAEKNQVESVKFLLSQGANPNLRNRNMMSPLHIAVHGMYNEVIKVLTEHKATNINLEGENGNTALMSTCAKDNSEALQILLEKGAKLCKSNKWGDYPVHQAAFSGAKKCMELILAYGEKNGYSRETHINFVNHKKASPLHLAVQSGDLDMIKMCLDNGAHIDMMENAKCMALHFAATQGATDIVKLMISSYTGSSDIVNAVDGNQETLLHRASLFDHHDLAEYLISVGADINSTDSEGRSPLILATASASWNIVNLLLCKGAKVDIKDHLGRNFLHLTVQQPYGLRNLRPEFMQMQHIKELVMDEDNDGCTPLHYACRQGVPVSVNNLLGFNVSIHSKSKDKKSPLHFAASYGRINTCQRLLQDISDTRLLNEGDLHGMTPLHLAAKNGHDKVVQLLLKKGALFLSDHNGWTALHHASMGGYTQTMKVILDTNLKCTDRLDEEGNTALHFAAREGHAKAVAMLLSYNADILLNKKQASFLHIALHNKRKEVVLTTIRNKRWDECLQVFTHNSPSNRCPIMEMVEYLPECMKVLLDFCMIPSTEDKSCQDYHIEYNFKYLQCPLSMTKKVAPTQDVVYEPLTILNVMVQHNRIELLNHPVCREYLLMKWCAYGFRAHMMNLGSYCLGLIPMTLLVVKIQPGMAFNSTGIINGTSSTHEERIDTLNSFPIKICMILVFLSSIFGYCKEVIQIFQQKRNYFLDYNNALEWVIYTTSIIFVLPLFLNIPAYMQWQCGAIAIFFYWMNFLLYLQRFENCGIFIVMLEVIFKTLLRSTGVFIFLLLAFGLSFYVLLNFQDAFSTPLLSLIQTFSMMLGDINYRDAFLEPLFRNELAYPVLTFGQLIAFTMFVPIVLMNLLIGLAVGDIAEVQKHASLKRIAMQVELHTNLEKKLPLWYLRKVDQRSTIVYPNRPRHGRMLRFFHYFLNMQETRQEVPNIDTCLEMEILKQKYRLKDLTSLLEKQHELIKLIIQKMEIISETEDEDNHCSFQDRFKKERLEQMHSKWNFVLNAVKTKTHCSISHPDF

SMILES | inhibition [1] | EC50 [2] | half-life at 50 µM [3] | Activity [4] | Stability [5] | Activity [6] | half-life at 50 µM [7] | Activity (Mus musculus [8]) | Activity [9] | Activity (Mus musculus [10]) | Activity (HEK293) | Drug metabolism [11] | Activity [12] | Activity [13] | Activity [14] | Activity [15] | Activity (Mus musculus [16]) | Drug metabolism [17] | Activity [18] | Activity [19]
c1ccc(/N=N/c2ccncc2)cc1 | Active | – | – | – | – | – | – | – | – | – | – | – | – | – | – | – | – | – | – | –
O=C(O)c1ccc(/N=N/c2ccccc2)cc1 | Active | 24.8 µM | 6.55 min | inactive | Stable | inactive | 1.35 min | Active | inactive | inactive | inactive | Metabolite_Detected | Active | Not Active | inactive | Active | inactive | Metabolite_Detected | – | –
Nc1cccc(/N=N/c2ccccc2)c1 | Active | – | – | inactive | Stable | – | – | – | – | – | inactive | – | – | – | – | Active | – | Metabolite_Notdetected | – | –
Clc1cc(/N=N/c2ccccc2)ccn1 | Active | 5.55 µM | 9.67 min | inactive | Stable | inactive | 5.3 min | Active | inactive | inactive | inactive | Metabolite_Detected | Active | Not Active | inactive | Active | inactive | Metabolite_Detected | – | –
C=CCN=C=S | – | – | – | – | – | – | – | – | – | – | – | – | – | – | – | – | – | – | Active | –
Oc1cccc(/N=N/c2ccccc2)c1 | Active | 104 µM | 2.43 min | inactive | Stable | – | 1.65 min | inactive | – | – | inactive | Metabolite_Detected | – | – | – | Active | – | Metabolite_Detected | – | inactive
Oc1ccc(/N=N/c2ccccc2)cc1 | Active | – | – | – | – | – | – | – | – | – | – | – | – | – | – | – | – | – | – | –
C[C@H](CCC(=O)O)C[C@H](C)C[C@H](C)C(=O)/C=C(\O)[C@H](C)C[C@H](C)C/C=C/[C@@H](C)[C@@H](O)[C@@H](C)[C@@H](O)C[C@@H]1CC[C@@](C)([C@H]2CC[C@@](C)([C@@H](C)O)O2)O1 | – | – | – | – | – | – | – | – | – | – | – | – | – | – | – | Active | – | – | – | –
Cc1cnccc1/N=N/c1ccccc1 | Active | 19.2 µM | – | inactive | Stable | – | 1.67 min | inactive | – | – | inactive | – | – | – | – | Active | – | Metabolite_Notdetected | – | –
